The values that follow come from patent publication US20180021361A1, “COMBINATION DRUG TREATMENT FOR HEPATITIS C INFECTION” (JANSSEN PHARMACEUTICALS, INC., priority 2016, published 2018).

SMILES strings stand for the structures. pIC50: −log10 of the molar value.

Broadly, the pIC50 is the IC50 on a negative log10 scale, so that one unit is a factor of ten. Read a low pIC50 as a large IC50. The term Tmax denotes the time from dosing to the highest level.

Series [1] deals with P-gp (Homo sapiens, UniProt P08183). As to conditions: efflux transporter; cited from earlier work.
P-gp, sequence (P08183 whole entry): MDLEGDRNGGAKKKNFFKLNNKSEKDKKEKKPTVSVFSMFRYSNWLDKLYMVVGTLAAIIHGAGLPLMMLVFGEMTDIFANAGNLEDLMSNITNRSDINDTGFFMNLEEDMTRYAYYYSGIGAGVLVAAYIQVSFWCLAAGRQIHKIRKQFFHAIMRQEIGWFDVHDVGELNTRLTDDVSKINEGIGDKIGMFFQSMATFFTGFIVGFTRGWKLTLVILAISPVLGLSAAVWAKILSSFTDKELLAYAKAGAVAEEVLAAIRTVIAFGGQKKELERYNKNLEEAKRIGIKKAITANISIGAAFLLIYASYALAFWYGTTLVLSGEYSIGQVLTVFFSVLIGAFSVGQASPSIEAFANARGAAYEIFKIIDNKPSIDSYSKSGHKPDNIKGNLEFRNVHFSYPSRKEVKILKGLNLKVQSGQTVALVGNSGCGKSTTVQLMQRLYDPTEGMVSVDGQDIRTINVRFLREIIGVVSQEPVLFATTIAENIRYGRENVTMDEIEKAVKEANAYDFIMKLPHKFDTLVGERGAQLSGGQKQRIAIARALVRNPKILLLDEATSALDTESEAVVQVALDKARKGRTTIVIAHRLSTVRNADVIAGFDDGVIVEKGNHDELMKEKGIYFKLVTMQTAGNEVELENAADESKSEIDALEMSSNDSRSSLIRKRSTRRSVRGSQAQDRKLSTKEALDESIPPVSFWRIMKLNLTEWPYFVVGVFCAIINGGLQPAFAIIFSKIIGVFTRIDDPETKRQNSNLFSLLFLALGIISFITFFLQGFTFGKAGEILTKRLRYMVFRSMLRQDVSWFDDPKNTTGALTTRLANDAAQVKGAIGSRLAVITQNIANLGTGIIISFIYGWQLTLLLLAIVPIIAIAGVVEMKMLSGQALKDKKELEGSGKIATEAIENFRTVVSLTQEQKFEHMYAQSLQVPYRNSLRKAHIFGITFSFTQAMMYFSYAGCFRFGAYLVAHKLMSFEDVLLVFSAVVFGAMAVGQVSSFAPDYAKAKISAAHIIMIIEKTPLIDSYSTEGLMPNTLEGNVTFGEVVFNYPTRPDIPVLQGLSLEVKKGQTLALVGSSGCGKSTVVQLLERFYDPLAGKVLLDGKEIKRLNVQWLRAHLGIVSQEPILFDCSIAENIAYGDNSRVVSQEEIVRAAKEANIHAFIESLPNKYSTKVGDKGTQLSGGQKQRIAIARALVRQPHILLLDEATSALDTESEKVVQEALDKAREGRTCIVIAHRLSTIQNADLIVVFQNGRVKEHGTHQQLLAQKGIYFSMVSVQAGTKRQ
The target in series [2] is BSEP (Homo sapiens, UniProt O95342). As to conditions: efflux transporter; cited from earlier work.
BSEP, sequence (O95342 whole entry): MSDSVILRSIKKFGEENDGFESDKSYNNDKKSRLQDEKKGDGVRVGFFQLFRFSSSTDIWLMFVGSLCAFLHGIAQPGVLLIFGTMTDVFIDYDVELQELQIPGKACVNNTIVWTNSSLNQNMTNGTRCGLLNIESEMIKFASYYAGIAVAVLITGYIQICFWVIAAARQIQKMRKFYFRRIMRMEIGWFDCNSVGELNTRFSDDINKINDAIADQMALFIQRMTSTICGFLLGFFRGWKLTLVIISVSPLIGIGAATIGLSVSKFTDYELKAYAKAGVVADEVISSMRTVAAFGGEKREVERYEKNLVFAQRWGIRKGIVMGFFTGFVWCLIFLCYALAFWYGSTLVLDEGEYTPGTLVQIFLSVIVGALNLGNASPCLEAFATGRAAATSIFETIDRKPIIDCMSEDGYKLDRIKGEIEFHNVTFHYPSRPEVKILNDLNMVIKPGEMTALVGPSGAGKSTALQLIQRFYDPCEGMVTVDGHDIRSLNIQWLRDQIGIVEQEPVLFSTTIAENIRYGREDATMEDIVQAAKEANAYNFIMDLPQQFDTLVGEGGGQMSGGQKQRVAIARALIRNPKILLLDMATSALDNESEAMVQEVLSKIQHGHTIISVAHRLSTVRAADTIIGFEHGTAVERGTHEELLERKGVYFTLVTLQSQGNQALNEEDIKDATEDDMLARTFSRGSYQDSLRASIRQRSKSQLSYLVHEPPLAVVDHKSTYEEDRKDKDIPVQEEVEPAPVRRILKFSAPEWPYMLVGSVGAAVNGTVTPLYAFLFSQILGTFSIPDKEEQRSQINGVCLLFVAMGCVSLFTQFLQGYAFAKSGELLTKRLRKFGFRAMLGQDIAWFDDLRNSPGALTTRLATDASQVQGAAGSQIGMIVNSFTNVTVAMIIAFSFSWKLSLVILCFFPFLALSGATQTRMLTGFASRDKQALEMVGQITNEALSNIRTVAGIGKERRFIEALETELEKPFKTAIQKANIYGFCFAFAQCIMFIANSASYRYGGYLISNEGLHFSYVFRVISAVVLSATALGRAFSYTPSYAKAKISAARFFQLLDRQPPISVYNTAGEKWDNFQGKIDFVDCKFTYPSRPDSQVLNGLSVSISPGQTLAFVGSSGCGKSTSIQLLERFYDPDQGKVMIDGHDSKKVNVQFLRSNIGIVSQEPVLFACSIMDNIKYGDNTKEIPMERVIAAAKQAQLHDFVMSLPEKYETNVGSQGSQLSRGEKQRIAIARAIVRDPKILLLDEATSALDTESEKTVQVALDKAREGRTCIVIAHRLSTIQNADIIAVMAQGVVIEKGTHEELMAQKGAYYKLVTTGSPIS
Series [3] can be described thus: Phase 2a open-label combination study, pharmacokinetics. The class given is in vivo, human. The method, then:
A randomized, Phase 2a, open-label study was carried out to evaluate the safety, pharmacokinetics and efficacy of the combination of Compound (III), Odalasvir and Simeprevir in Genotype 1 treatment-naïve subjects with chronic hepatitis C. Other treatment-naïve subjects included Genotype 2, 3, 4, 5 and 6. The aim of the study was to determine the efficacy, pharmacokinetics (PK), and safety of Compound (III)+Odalasvir±SMV in HCV-infected subjects. […] Efficacy, PK and safety evaluations were conducted during and through 24 weeks post dosing. Up to 15 cohorts were enrolled; data was generated from cohorts that have completed dosing.

The target in series [4] is T1, OATP1B3 (Homo sapiens, UniProt Q9NPD5).
T1 sequence (Q9NPD5 1-702): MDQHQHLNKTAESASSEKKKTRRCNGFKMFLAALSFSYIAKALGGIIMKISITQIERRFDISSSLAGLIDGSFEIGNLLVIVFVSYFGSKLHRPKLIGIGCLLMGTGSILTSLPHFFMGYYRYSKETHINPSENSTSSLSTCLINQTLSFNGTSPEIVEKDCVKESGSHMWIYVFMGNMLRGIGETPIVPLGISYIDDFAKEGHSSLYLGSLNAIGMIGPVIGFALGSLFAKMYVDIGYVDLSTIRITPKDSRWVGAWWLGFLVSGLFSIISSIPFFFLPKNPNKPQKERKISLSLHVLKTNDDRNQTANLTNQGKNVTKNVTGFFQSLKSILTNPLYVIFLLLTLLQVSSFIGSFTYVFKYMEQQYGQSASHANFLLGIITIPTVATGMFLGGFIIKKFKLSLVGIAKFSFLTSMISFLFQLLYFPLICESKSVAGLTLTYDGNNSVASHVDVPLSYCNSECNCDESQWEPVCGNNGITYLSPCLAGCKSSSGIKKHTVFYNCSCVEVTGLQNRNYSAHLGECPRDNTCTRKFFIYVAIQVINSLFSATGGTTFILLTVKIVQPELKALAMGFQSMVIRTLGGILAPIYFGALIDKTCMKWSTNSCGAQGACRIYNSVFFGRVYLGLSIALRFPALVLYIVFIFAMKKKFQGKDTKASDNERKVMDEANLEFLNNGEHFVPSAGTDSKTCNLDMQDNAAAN
As to conditions: uptake transporter; cited from earlier work.

Series [5] concerns the target MRP2 (Homo sapiens, UniProt Q92887). As to conditions: efflux transporter; cited from earlier work.
Series [6] deals with MRP2/3 (Homo sapiens, UniProt O15438). As to conditions: efflux transporter; cited from earlier work.
The subject of series [7] is CYP. As to the kind of experiment: CYP inhibition.
A short description of series [8]: PK of single agents versus fixed dose combinations, single dose in healthy volunteers. It is filed as in vivo, human. As to conditions: for t1/2term: mean ± SD. The method, then:
SMV (100 mg), ODV (50 mg), and Compound (III) (800 mg) were administered as three different formulations or together as single doses in vivo to healthy volunteers. The arms of the study included: • Arm 1 (Reference Arm): Single oral doses of single agents, one SMV 100-mg capsule, one ODV 50-mg tablet as granule layered solid dispersion with copovidone and poloxamers, and two Compound (III) 400-mg tablets, administered together. • Arm 2: Single oral dose of fixed dose combination (FDC02): SMV 100 mg+ODV 50 mg as a spray dried solid dispersion with HPMC-AS L in a ratio ODV/HPMC-AS L 1/1 w/w+Compound (III) 800 mg • Arm 3: Single oral dose of fixed dose combination (FDC04): SMV 100 mg+ODV 50 mg as a spray dried solid dispersion with HPMC-AS L in a ratio ODV/HPMC-AS L 1/3 w/w+Compound (III) 800 mg • Arm 4: Single oral dose of fixed dose combination (FDC01): SMV 100 mg+ODV 50 mg as a spray dried solid dispersion with copovidone and poloxamers+Compound (III) 800 mg
PK parameters, including Cmax, tmax, AUClast, and AUC∞ were measured for Compound (III), ODV, SMV, and metabolites Compound A-I and Compound A-3 for each Arm of the study. Arms that included fixed dose combinations (FDC) (Arm 2, Arm 3, and Arm 4) were then compared to a single oral dose (Arm 1, the reference Arm). Table 9, Table 10, Table 11, Table 12 and Table 13 display relevant PK parameters and FIG. 9, FIG. 10, FIG. 11, FIG. 12, and FIG. 13 depict the plasma concentration over time of SMV, ODV, Compound A-1, and Compound A-3 for each Arm of the study.

MRP2, sequence (Q92887 whole entry): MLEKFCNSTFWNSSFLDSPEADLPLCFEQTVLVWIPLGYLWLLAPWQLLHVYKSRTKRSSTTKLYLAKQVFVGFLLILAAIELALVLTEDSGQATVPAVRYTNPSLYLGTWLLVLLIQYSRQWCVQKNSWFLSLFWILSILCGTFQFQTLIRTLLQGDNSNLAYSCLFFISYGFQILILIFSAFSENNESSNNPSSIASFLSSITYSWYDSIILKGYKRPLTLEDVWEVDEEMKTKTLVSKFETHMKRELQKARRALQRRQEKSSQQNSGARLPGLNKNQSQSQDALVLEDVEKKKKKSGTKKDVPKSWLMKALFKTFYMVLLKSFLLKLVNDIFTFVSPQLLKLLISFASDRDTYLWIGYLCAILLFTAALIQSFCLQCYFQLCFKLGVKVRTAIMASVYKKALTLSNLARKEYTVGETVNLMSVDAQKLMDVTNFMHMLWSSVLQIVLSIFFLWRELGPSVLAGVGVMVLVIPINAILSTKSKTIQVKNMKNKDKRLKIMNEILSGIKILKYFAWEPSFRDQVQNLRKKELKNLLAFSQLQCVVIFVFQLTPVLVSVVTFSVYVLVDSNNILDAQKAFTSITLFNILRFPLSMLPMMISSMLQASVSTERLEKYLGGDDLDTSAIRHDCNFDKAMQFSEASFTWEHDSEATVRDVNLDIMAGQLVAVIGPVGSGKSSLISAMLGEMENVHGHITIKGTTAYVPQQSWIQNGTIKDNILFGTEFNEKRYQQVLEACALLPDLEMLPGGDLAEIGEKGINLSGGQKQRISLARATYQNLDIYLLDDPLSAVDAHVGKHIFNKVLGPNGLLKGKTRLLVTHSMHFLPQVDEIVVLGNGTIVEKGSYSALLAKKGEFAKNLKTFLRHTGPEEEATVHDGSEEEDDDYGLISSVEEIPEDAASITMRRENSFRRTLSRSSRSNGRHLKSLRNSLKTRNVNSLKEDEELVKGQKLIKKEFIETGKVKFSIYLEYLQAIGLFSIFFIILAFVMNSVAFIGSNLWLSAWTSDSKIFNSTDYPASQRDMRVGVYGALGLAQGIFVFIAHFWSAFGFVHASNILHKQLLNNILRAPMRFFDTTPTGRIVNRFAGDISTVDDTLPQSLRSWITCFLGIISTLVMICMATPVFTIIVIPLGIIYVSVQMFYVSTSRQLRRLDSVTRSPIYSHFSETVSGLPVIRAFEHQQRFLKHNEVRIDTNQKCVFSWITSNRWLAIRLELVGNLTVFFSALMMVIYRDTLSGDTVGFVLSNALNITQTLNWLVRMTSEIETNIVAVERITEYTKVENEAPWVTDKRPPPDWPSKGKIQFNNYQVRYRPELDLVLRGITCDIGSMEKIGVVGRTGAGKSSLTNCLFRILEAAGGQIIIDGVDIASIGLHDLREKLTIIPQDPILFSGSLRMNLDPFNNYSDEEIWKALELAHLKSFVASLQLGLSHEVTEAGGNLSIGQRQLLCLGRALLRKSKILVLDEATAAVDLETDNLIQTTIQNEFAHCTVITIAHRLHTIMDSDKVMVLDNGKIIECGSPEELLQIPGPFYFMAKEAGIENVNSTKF

With `COC(=O)N[C@H](C(=O)N1[C@H](c2nc3cc(-c4cc5ccc4CCc4ccc(c(-c6ccc7[nH]c([C@@H]8C[C@@H]9CCCC[C@@H]9N8C(=O)[C@@H](NC(=O)OC)C(C)C)nc7c6)c4)CC5)ccc3[nH]2)C[C@@H]2CCCC[C@@H]21)C(C)C` [ODV, methyl [(2S)-1-[(2S,3aS,7aS)-2-[6-[11-[2-[(2S,3aS,7aS)-1-[(2S)-2-[(methoxycarbonyl)amino]-3-methylbutanoyl]octahydro-1H-indol-2-yl]-1H-benzimidazol-6-yl]tricyclo[8.2.2.2^4,7]hexadeca-1(12),4,6,10,13,15-hexaen-5-yl]-1H-benzimidazol-2-yl]octahydro-1H-indol-1-yl]-3-methyl-1-oxobutan-2-yl]carbamate], in series [1], the “in vitro inhibition of P-gp” value is reported as “moderate inhibition”. Further, the “in vitro inhibition of BSEP” value in series [2] is on record as “no inhibition”. Besides, the “decrease of exposure on reducing Odalasvir dosing from once a day to every other day” value in series [3] (50 mg) is listed as “proportionally”. The “observed exposure in Cohort 1 / group (i) versus anticipated” value in series [3] (Compound (III) 400 mg, ODV 50 mg QD, SMV 100 mg QD) is “higher than anticipated”. Further, the “in vitro inhibition of OATP1B3” value in series [4] is on record as “no inhibition”. The “in vitro inhibition of MRP2” value in series [5] is listed as “no inhibition”. Besides, the “in vitro inhibition of MRP3” value in series [6] is “no inhibition”.
Take `CC(C)OC(=O)C(C)N[P@](=O)(OC[C@@]1(F)O[C@@H](n2ccc(=O)[nH]c2=O)[C@](C)(O)[C@@H]1O)Oc1ccccc1` (stereo in doubt) [Compound (III)]: the “in vitro inhibition of P-gp” value in series [1] is given as “no in vitro inhibition”. In addition, the pIC50 in series [7] is less than 4.59. For the same compound, the t1/2term in series [8] (Arm 1 (reference): single agents, single oral dose) was 36 ± 6 min; in series [8] (Arm 2: FDC02, single oral dose), 42 ± 12 min; in series [8] (Arm 3: FDC04, single oral dose) it was 42 ± 6 min; in series [8] (Arm 4: FDC01, single oral dose) it was 36 ± 6 min. Moreover, in series [8] (human, in vivo, Arm 1 (reference): single agents, single oral dose, median [range]), the Tmax was 120 min. The “in vitro inhibition of OATP1B3” value in series [4] was “no in vitro inhibition”.
